The source of these data is US11147801B2, “Methods of use for trisubstituted benzotriazole derivatives as dihydroorotate oxygenase inhibitors” (Aurigene Discovery Technologies Limited, priority 2017, dated 2021).

In one assay the target is DHODH (Homo sapiens (Human), UniProt Q02127). Put plainly: DHODH activity assay (coupled enzyme assay, DCIP reduction). It counts as biochemical. The settings on record: read-out: DHODH inhibition activity, IC50 group. The procedure:
The DHODH activity assay is a coupled enzyme assay in which oxidation of DHO and subsequent reduction of ubiquinone are stoichiometrically equivalent to the reduction of DCIP ([…]). The reduction of DCIP is accompanied by a loss of absorbance at 610 nm.
Buffer Preparation: 50 mM tris HCl, 150 mM KCl, and pH 8.0, 0.8% triton.
L-Dihydroorotic acid stock solution of 20 mM in buffer.
2, 6-Dichloroindophenol Sodium salt hydrate stock solution of 20 mM in buffer.
Decylubiquinone stock solution of 20 mM in buffer.
5 μL of Dimethyl sulfoxide or a compound of formula (I) in DMSO solution was added to the wells of a 96 well plate. Compounds of formula (I) were measured at 10 μM.
Protein along with buffer was added, so that the total volume including the DMSO was 87 μL. Compound and protein were incubated for half an hour at room temperature after mixing. 5 μL of 20 mM solution of L-Dihydroorotic acid, 5 μL of 2 mM solution of Decylubiquinone and 3 μL of 2 mM solution of 2, 6-Dichloroindophenol sodium salt hydrate were added to the above solution (total assay volume 100 μL). The mixture was stirred for 2 min and absorbance was recorded at every 10 min at 610 nanometers.
Percent inhibition is calculated as follows: […]
A 2 mM DMSO stock solution of the selected trisubstituted benzoimidazole and benzotriazole derivatives of formula (I) of the present invention to be examined was prepared. Subsequent ⅓rd dilutions were made.
5 μL of each stock of compound of formula (I) was used for each 100 μL assay. Therefore, 5 μL of the 2 mM stock provided 100 μL of 100 μM solution of compound of formula (I), when made up with buffer, protein and substrate. See also: Ulrich et al. (2001) Eur. J. Biochem.268, 1861-1868.

A further assay has as its system CJM. Put plainly: Tumor cell line panel screen, 72 hrs. The settings on record: Homo sapiens, melanoma. Type of assay: cell-based. How it is done:
(§1) A tumor cell line panel screen aimed at identifying tumor cell subsets that were particularly sensitive to inhibition of DHODH with Compound 1 was performed. Compound 1 is represented by the following structural formula: […]
(§2) These cell lines were treated with Compound 1 for a total of 72 hrs.
(§3) Table 1 is a list of some of the sensitive cell lines to Compound 1 along with GI50 values and max growth response. A maximum inhibition of 100 represents complete growth inhibition; a max inhibition value>100 represents cell killing.

The test system of another assay is DU145. Put plainly: Tumor cell line panel screen, 72 hrs. Type of assay: cell-based. The note with it: Homo sapiens, DU-145, DU145, prostate cancer. How it is done:
as §1, §2, §3

A further assay has as its system DU4475. The assay is described as follows: Tumor cell line panel screen, 72 hrs. Type of assay: cell-based. The settings on record: Homo sapiens, DU-4475, DU4475, triple negative breast cancer. How it is done:
as §1, §2, §3

The test system of another assay is JVM13. Put plainly: Tumor cell line panel screen, 72 hrs. The note with it: Homo sapiens, JVM13, B-prolymphocytic leukemia. Type of assay: cell-based. How it is done:
as §1, §2, §3

For another assay, the system named is JYSE150. The assay is described as follows: Tumor cell line panel screen, 72 hrs. It counts as cell-based. The settings on record: Homo sapiens, JYSE150, esophageal squamous cell carcinoma. How it is done:
as §1, §2, §3

Another assay concerns KYSE510. Put plainly: Tumor cell line panel screen, 72 hrs. It counts as cell-based. The settings on record: Homo sapiens, KYSE-510, KYSE510, esophageal squamous cell carcinoma. How it is done:
as §1, §2, §3

In another assay the test system is MINO. The assay is described as follows: Tumor cell line panel screen, 72 hrs. It counts as cell-based. The settings on record: Homo sapiens, mantle cell lymphoma. How it is done: as §1, §2, §3
The subject of a further assay is MOLM13. The assay is described as follows: Tumor cell line panel screen, 72 hrs. It counts as cell-based. The settings on record: Homo sapiens, MOLM-13, MOLM13, acute myeloid leukemia. The procedure: as §1, §2, §3
The next assay deals with MV411. Put plainly: Tumor cell line panel screen, 72 hrs. It counts as cell-based. The note with it: Homo sapiens, MV4-11, MV411, child acute myeloid leukemia. The procedure:
as §1, §2, §3

In the next assay the test system is OCILY8. The assay is described as follows: Tumor cell line panel screen, 72 hrs. It counts as cell-based. The note with it: Homo sapiens, OCI-Ly8, OCILY8, diffuse large B cell lymphoma. The procedure:
as §1, §2, §3

For another assay, the system named is RL. The assay is described as follows: Tumor cell line panel screen, 72 hrs. The settings on record: Homo sapiens, non-Hodgkin's lymphoma. It counts as cell-based. How it is done: as §1, §2, §3
The test system of another assay is SR786. Put plainly: Tumor cell line panel screen, 72 hrs. Type of assay: cell-based. The note with it: Homo sapiens, SR-786, SR786, anaplastic large cell lymphoma. The procedure: as §1, §2, §3
The subject of another assay is SUDHL1. Put plainly: Tumor cell line panel screen, 72 hrs. Type of assay: cell-based. The note with it: Homo sapiens, SU-DHL-1, SUDHL1, anaplastic large cell lymphoma. How it is done: as §1, §2, §3
The test system of the next assay is SUDHL5. Put plainly: Tumor cell line panel screen, 72 hrs. It counts as cell-based. The settings on record: Homo sapiens, SU-DHL-5, SUDHL5, diffuse large B cell lymphoma. The procedure: as §1, §2, §3
Another assay relates to SUM159PT. Put plainly: Tumor cell line panel screen, 72 hrs. It counts as cell-based. The settings on record: Homo sapiens, SUM-159-PT, triple negative breast cancer. How it is done: as §1, §2, §3
The subject of another assay is AML_2 tumor. Put plainly: Patient-derived AML xenograft model AML_2. It counts as in vivo, CB17 SCID mice. The note with it: 100 mg/kg BID PO. How it is done: A screen was next performed using a small number of mice/group to assess efficacy of Compound 1 in AML and DLBCL patient-derived xenograft models. Tumor-bearing mice (n=3/group) were treated with vehicle or Compound 1 at 100 mg/kg BID PO.
(In general: Xenograft models place foreign cells or tissue in a host animal.)

SMILES strings stand for the structures. pIC50: −log10 of the molar value. Some results are limits rather than exact numbers.

Sequence of DHODH (Q02127 whole entry): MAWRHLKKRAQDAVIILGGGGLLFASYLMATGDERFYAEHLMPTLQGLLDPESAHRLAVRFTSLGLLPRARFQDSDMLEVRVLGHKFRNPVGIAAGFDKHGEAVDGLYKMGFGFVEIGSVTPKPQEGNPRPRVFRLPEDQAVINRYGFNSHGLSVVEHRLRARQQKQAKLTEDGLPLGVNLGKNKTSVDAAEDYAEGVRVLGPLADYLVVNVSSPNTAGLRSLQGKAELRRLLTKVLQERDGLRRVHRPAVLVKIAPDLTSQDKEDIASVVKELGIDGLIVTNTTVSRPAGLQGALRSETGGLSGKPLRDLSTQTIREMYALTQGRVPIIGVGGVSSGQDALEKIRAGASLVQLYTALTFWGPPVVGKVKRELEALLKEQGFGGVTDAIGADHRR

`Cc1ccccc1-c1ccc(-c2cc(C(=O)O)c3c(c2)nnn3C)cc1` [Compound 1, 1-methyl-5-(2′-methyl-[1,1′-biphenyl]-4-yl)-1H-benzo[d][1,2,3]triazole-7-carboxylic Acid]: the negative logarithm of the IC50 (pIC50) at DHODH was above 7.00. The GI50 with CJM turned out to be 620 nM; in the assay with DU145 it was 480 nM; in the assay with DU4475, 100 nM; with JVM13, 20 nM; in the assay on JYSE150, 100 nM; with KYSE510, 130 nM. Further, the GI50 in the assay on MINO turned out to be 30 nM; in the assay with MOLM13, 60 nM; in the assay on MV411, 270 nM; with OCILY8 it was 20 nM; with RL, 80 nM; with SR786, 50 nM. The GI50 worked out at 40 nM in the assay on SUDHL1, 20 nM with SUDHL5 and 140 nM with SUM159PT. Further, in the assay on AML_2 tumor, the TGI is recorded as above 60%.

For orientation: pIC50 means the IC50 on a negative log10 scale, so that one unit is a factor of ten. By GI50 is commonly meant the concentration giving 50% growth inhibition. Read a low GI50 as greater sensitivity of the cells. As usually defined, the TGI is the reduction of tumour growth relative to the control group. The low end stands for little slowing of growth, the high end for much slowing of growth.
